The numbers were not newly measured in article PMC6105163, “Abaloparatide Exerts Bone Anabolic Effects with Less Stimulation of Bone Resorption-Related Factors: A Comparison with Teriparatide” (Calcified Tissue International, 2018), which cites them from elsewhere.

Series [1] has as its system osteoblasts. As to conditions: cited from earlier work. The text has this: The mechanism of action of TPTD on bone turnover is not fully understood; however, many studies have examined the molecular mechanisms in recent decades. According to a previous study, PTH(1–34) acts on osteoblasts and indirectly induces bone resorption by activating osteoclasts. PTH(1–34) increases the expression of receptor activator of nuclear factor kappa-B ligand (RANKL) and macrophage colony-stimulating factor (M-CSF) and decreases the expression of osteoprotegerin (OPG), a decoy receptor of RANKL [9]. These effects of PTH(1–34) further promote the maturation of osteoclasts with ... || We next investigated the effect of ABL on bone formation in SaOS-2. In the previous study, bone formation related to PTH1R signaling was enhanced by the intermittent treatment of TPTD in osteoblasts. This anabolic effect of intermittent TPTD treatment was mediated by IGF-1, which promoted the differentiation and mineralization of osteoblasts. We therefore evaluated the effects on IGF-1 and osteocalcin, a marker gene for differentiated osteoblasts, with a repeating 6-h exposure cycle of ABL and TPTD in SaOS-2 (Fig. 3a). As expected, ABL as well as TPTD increased the gene expressio ...

Series [2] concerns osteoporosis. As to conditions: cited from earlier work. An excerpt: In fact, teriparatide (TPTD), the N-terminal 34 amino acids fragment of PTH, is currently the only bone anabolic agent used for the treatment of osteoporosis, by daily or weekly subcutaneous administration.

Regarding human PTH(1–34) [Teriparatide], the “bone formation related to PTH1R signaling” value in series [1] (intermittent treatment, osteoblasts, ref [18]) is reported as “enhanced”. In series [1] (ref [9]), the OPG expression entry was “decreases”; the “RANKL and M-CSF expression” value was “increases”. Also, the IGF-1 expression entry in series [1] (ref [10]) is on record as “enhancement”. For the same substance, in series [2] (daily or weekly subcutaneous), the “BMD vs antiresorptive agents such as bisphosphonates” value was “greater than antiresorptive agents” and the “effect on the hip” value is “modest”. Besides, the blood calcium result in series [2] (in vivo) was “mildly increased”.
